Data taken from patent publication US12565494B2, “Inhibitors of human respiratory syncytial virus and metapneumovirus” (priority 2022, dated 2026).

system: RSV-A2-GFP virus; assay: microbe, parasite or virus in culture; assay type: cell-based, Human Respiratory Syncytial Virus; settings: Table I Summary of Activities for RSV; Calu-1 cells, RSV-A2-GFP MOI=1.2, 96 hrs, GFP-expressing cells counted; read-out: RSV EC50
Description: To set up the assay, ARF vials were thawed in a 37° C. water bath and a control compound was resuspended in assay media DMEM (Dulbecco's Modified Eagle Medium) containing 2% FBS, 100 U/ml Penicillin-Streptomycin.
GFP sequence was derived from pJTI™ R4 Dest CMV N-EmGFP pA Vector (Invitrogen) and was cloned into the intergenic sequence between wild-type RSV-A2 P and M genes using standard recombineering techniques. Recombinant RSV-A2-GFP was propagated in Hep2 cells (human cells contain HeLa marker chromosomes and were derived via HeLa contamination, ATCC CCL-23) with a Multiplicity of Infection (MOI) of 0.1. Virus was harvested 3 days after infection by collecting all culture material and then freeze-thawing the mixture for 5 minutes. Working virus stocks were generated by thawing frozen viral cultures in 37° C. water bath, which were centrifuged at 218 g for 15 min at 4° C. 1/10 of 10×SPG (Biological Industries 06-3061-01-5A) were added and then mixed. The supernatant was aliquoted, frozen in liquid nitrogen, and then transferred to a −80° C. freezer for storage. Virus titer was determined by automated plaque assay in HEp-2 cells following methods described previously (Wen Z. et al.; 2019).
Calu-1 cells were purchased from ATCC (Cat #HTB-54) and were expanded in growth media (DMEM containing 10% FBS, 100 U/ml Penicillin-Streptomycin). To make ARF, cell culture media was removed and discarded and the cell layer was briefly rinsed with PBS to remove serum. 2.5 mL of TrypLE Express solution were added and cells incubated until dislodged, to which growth media was added and the cells were resuspended by gentle pipetting. Cells were counted for concentration and viability as determined by ViCell. Cells were centrifuged at RT, 300 g for 5 minutes to pellet cells. The supernatant was gently aspirated and the pellet was flicked to loosen cells. Cells were resuspended in an appropriate volume of freezing medium (DMEM containing 10% DMSO, 10% FBS, 100 U/ml Penicillin-Streptomycin) to achieve a concentration of 5×10^6 cells/mL. 1 mL aliquots of the cell suspension were transferred to freezing vials. The vials were put into an upright container in a −80° C. freezer overnight before transferring vials to liquid nitrogen for storage
Assay ready freeze-down (ARF, generation described separately) Calu-1 cells (ATCC HTB-54) were used. Compound plates were prepared by dispensing compounds dissolved in DMSO into the wells of a 384 well Corning® 3985 plate with an ECHO acoustic dispenser and compounds were tested in 10-point serial 3-fold dilution. […] To set up the assay, ARF vial(s) were thawed in a 37° C. water bath and were then resuspended into assay media (DMEM containing 2% FBS, 100 U/ml Penicillin-Streptomycin). Cells were counted using default parameters on ViCell and diluted to 20,000 cells/mL in assay media. RSV-A2-GFP virus was added to cells at 24,000 pfu/ml (MOI=1.2) and mixed by gentle inversion. 10 μL/well of 100% DMSO was dispensed as CellTiter-Glo (CTG) assay Max_E controls wells. The cells were dispensed at 50 μL/well using Bravo with 50 μL filtered tips into compound plates. Plates were covered with MicroClime lids, loaded with 7.5 mL of assay media to minimize evaporation, and were incubated at 37° C. and 5% CO2 for 96 hrs. Following incubation, distinct, GFP-expressing cells were counted using an Acumen imaging system with appropriate settings. A same-well CTG assay was performed by adding 10 μL/well reconstituted CellTiter-Glo reagent (Promega G7573) and plates were read on PerkinElmer Envision according to manufacturer's instructions. Raw data were loaded and analyzed in ActivityBase. Antiviral IC50 and cytotoxicity CC50 values were determined using a 4 parameter logistic fit based on the Levenberg-Marquardt algorithm. Model: 205-4 Parameter Logistic.

Structure (SMILES)	EC50 [nM]
Cn1nc(-c2cscn2)cc1C(=O)N1C[C@@H]2C(Oc3cc(C(C)(N)CO)cc(-c4ccc(F)cc4)n3)[C@@H]2C1 (single isomer, unassigned; enantiomer 2) [Example 57B]	< 10
Cn1nc(-c2ncco2)cc1C(=O)N1C[C@@H]2C(Oc3cc(C(C)(N)CO)cc(-c4ccc(F)cc4)n3)[C@@H]2C1 (single isomer, unassigned; enantiomer 2) [Example 58B]	< 10

same assay, conditions: human respiratory syncytial virus, Calu-1, 96 h, read-out: RSV EC50, Table I Summary of Activities for RSV; Calu-1 cells, RSV-A2-GFP MOI=1.2, 96 hrs, GFP-expressing cells counted

Structure (SMILES)	EC50 [nM]
Cn1nc(-c2cscn2)cc1C(=O)N1C[C@H]2[C@H](Oc3cc(C(C)(C)N)cc(-c4ccc(F)cc4)n3)[C@@]2(C)C1 (single isomer, unassigned; enantiomer 2) [Example 43B]	< 10
Cn1nc(-c2cscn2)cc1C(=O)N1C[C@@H]2[C@H](C1)[C@H]2Oc1cc(C(C)(N)C(N)=O)cc(-c2ccc(F)cc2)n1 (single isomer, unassigned; ent-2) [Example 49A]	< 10
Cn1nc(-c2cscn2)cc1C(=O)N1C[C@@H]2[C@H](C1)[C@H]2Oc1cc(C2(C)CNC2=O)cc(-c2ccc(F)cc2)n1 (single isomer, unassigned; ent-3) [Example 50A]	< 10

same assay, conditions: read-out: RSV EC50; Table I Summary of Activities for RSV; Calu-1 cells, RSV-A2-GFP MOI=1.2, 96 hrs, GFP-expressing cells counted

Structure (SMILES)	EC50 [nM]
CC(O)c1nc(-c2cscn2)sc1C(=O)N1C[C@@H]2[C@H](C1)[C@H]2Oc1cc(C(C)(C)N)cc(-c2ccc(F)cc2)n1 (single isomer, unassigned; enantiomer 2) [Example 16B]	< 10
Cn1nc(-c2ncco2)cc1C(=O)N1C[C@H]2[C@H](Oc3cc(C(C)(C)N)cc(-c4ccc(F)cc4)n3)[C@@]2(C)C1 (single isomer, unassigned; enantiomer 2) [Example 44B]	< 10
Cn1nc(-c2ccon2)cc1C(=O)N1C[C@H]2[C@H](Oc3cc(C(C)(C)N)cc(-c4ccc(F)cc4)n3)[C@@]2(C)C1 (single isomer, unassigned; enantiomer 2) [Example 45B]	< 10
Cn1nc(-c2cscn2)cc1C(=O)N1C[C@H]2[C@H](Oc3cc(C(C)(C)N)cc(N4CCC(C)(C)CC4)n3)[C@@]2(C)C1 (single isomer, unassigned; enantiomer 2) [Example 46B]	< 10
Cn1nc(-c2cscn2)cc1C(=O)N1C[C@@H]2[C@H](C1)[C@H]2Oc1cc(C2(C)CCN2)cc(-c2ccc(F)cc2)n1 (single isomer, unassigned; enantiomer 2) [Example 55B]	< 10
Cn1nc(-c2cscn2)cc1C(=O)N1C[C@@H]2[C@H](C1)[C@H]2Oc1cc(C2(C)CCCN2)cc(-c2ccc(F)cc2)n1 (single isomer, unassigned; enantiomer 2) [Example 56B]	< 10
CC(N)c1cc(O[C@H]2[C@@H]3CN(C(=O)c4cc(-c5cscn5)nn4C)C[C@@H]32)nc(-c2ccc(F)cc2)c1 (single isomer, unassigned; enantiomer 2) [Example 61B]	< 10
CC(N)c1cc(O[C@H]2[C@@H]3CN(C(=O)c4cc(-c5ccon5)nn4C)C[C@@H]32)nc(-c2ccc(F)cc2)c1 (single isomer, unassigned; enantiomer 2) [Example 62B]	< 10
Cn1nc(-c2cscn2)cc1C(=O)N1C[C@@H]2[C@H](C1)[C@H]2Oc1cc(C(C)(C)N)cc(C2CCC(C)(C)CC2O)n1 (single isomer, unassigned; enantiomer 2) [Example 66B]	10 to 100
Cn1nc(-c2cscn2)cc1C(=O)N1C[C@@H]2[C@H](C1)[C@H]2Oc1cc(C(C)(C)N)cc(C2CCC(C)(C)CC2O)n1 (single isomer, unassigned; enantiomer 3) [Example 66C]	10 to 100
Cn1nc(-c2cscn2)cc1C(=O)N1C[C@@H]2[C@H](C1)[C@H]2Oc1cc(C(C)(C)N)cc(C2CCC(C)(C)CC2O)n1 (single isomer, unassigned; enantiomer 4) [Example 66D]	10 to 100
Cn1nc(-c2cscn2)cc1C(=O)N1C[C@@H]2[C@H](C1)[C@H]2Oc1cc(C(C)(N)C(N)=O)cc(-c2ccc(F)cc2)n1 (single isomer, unassigned; ent-2) [Example 49B]	< 10

system: hMPV-GFP virus; assay: microbe, parasite or virus in culture; assay type: cell-based, Human Metapneumovirus; settings: Table II Summary of Activities for hMPV; VERO cells, hMPV-GFP MOI=1.25, 48 hrs, GFP-expressing cells counted; read-out: RSV EC50
Description: GFP expressing rgHMPV #3 p3 was generated in Dr. Buchholz's lab (Biacchesi S. et al., J Virol. 2007 June; 81(11): 6057-6067) and propagated in VERO cells (ATCC Cat #CCL-81) with a Multiplicity of Infection (MOI) of 0.1. Virus was harvested 4 days after infection by collecting cultured material and was freeze-thaw cycled in liquid nitrogen twice. Working virus stocks were generated from thawing frozen samples in 37° C. water bath, which were centrifuged at 218 g for 15 min at 4° C. 1/10 of 10×SPG (Biological Industries 06-3061-01-5A) were added and then mixed. The supernatant was aliquoted, frozen in liquid nitrogen, and then transferred to a −80° C. freezer for storage. Virus titer was determined by performing titration test in 96-well plates and calculate approximate virus titer using GFP event/well data.
Compound plates were prepared by dispensing compounds dissolved in DMSO into wells of a 384 well Corning 3985 polystyrene flat clear bottom optical imaging microplate (202.5 nL/well) using an ECHO acoustic dispenser. Each compound was tested in 10-point serial 3-fold dilution (typical final concentrations: 40,300 nM-2 nM). […] Continuous culture of VERO cells was maintained in complete culture media (OptiMEM supplemented with 2 mM GlutaMAX™ and 100 U/ml Penicillin-Streptomycin). To set up the assay, VERO cells were trypsinized with 0.25% Trypsin-EDTA until cells were dislodged, then cells were re-suspended with 1 mL FBS. Cells were spundown at 300 g for 5 minutes and cells were washed twice with culture media and counted using default parameters on ViCell. Cells were then diluted to 100,000 cells/mL (5,000 cells/50 μL) in complete culture media+TrypLE Select (80 μL/mL). hMPV-GFP virus was added to cells at 125,000 pfu/mL (MOI=1.25) and were mixed by gentle inversion. 10 μL/well of 100% DMSO was dispensed to CellTiter-Glo (CTG) assay Max_E controls wells. Cells were dispensed at 50 μL/well using Bravo and 50 μL filtered tips into compound plates. Plates were covered with MicroClime lids and loaded with 7.5 mL of assay media to minimize evaporation. Plates were lightly shaken for 10 minutes at room temperature and then incubated at 37° C. and 5% CO2 for 48 hrs. Following incubation, distinct GFP-expressing cells were counted using an Acumen imaging system with appropriate settings. A same-well CTG assay was performed by adding 10 μL/well reconstituted CellTiter-Glo reagent (Promega G7573) and plates were read on PerkinElmer Envision according to manufacturer's instructions. Raw data were loaded and analyzed in ActivityBase. Antiviral IC50 and cytotoxicity CC50 values were determined using a 4 parameter logistic fit based on the Levenberg-Marquardt algorithm. Model: 205-4 Parameter Logistic.

Structure (SMILES)	EC50 [nM]
Cn1nc(-c2cscn2)cc1C(=O)N1C[C@@H]2C(Oc3cc(C(C)(N)CO)cc(-c4ccc(F)cc4)n3)[C@@H]2C1 (single isomer, unassigned; enantiomer 2) [Example 57B]	> 100
Cn1nc(-c2ncco2)cc1C(=O)N1C[C@@H]2C(Oc3cc(C(C)(N)CO)cc(-c4ccc(F)cc4)n3)[C@@H]2C1 (single isomer, unassigned; enantiomer 2) [Example 58B]	> 100

same assay, conditions: Vero, 48 h, read-out: RSV EC50, Table II Summary of Activities for hMPV; VERO cells, hMPV-GFP MOI=1.25, 48 hrs, GFP-expressing cells counted

Structure (SMILES)	EC50 [nM]
Cn1nc(-c2cscn2)cc1C(=O)N1C[C@H]2[C@H](Oc3cc(C(C)(C)N)cc(-c4ccc(F)cc4)n3)[C@@]2(C)C1 (single isomer, unassigned; enantiomer 2) [Example 43B]	> 100
Cn1nc(-c2cscn2)cc1C(=O)N1C[C@@H]2[C@H](C1)[C@H]2Oc1cc(C(C)(N)C(N)=O)cc(-c2ccc(F)cc2)n1 (single isomer, unassigned; ent-2) [Example 49A]	> 100
Cn1nc(-c2cscn2)cc1C(=O)N1C[C@@H]2[C@H](C1)[C@H]2Oc1cc(C2(C)CNC2=O)cc(-c2ccc(F)cc2)n1 (single isomer, unassigned; ent-3) [Example 50A]	> 100

same assay, conditions: read-out: RSV EC50; Table II Summary of Activities for hMPV; VERO cells, hMPV-GFP MOI=1.25, 48 hrs, GFP-expressing cells counted

Structure (SMILES)	EC50 [nM]
CC(O)c1nc(-c2cscn2)sc1C(=O)N1C[C@@H]2[C@H](C1)[C@H]2Oc1cc(C(C)(C)N)cc(-c2ccc(F)cc2)n1 (single isomer, unassigned; enantiomer 2) [Example 16B]	> 100
Cn1nc(-c2ncco2)cc1C(=O)N1C[C@H]2[C@H](Oc3cc(C(C)(C)N)cc(-c4ccc(F)cc4)n3)[C@@]2(C)C1 (single isomer, unassigned; enantiomer 2) [Example 44B]	10 to 100
Cn1nc(-c2ccon2)cc1C(=O)N1C[C@H]2[C@H](Oc3cc(C(C)(C)N)cc(-c4ccc(F)cc4)n3)[C@@]2(C)C1 (single isomer, unassigned; enantiomer 2) [Example 45B]	> 100
Cn1nc(-c2cscn2)cc1C(=O)N1C[C@H]2[C@H](Oc3cc(C(C)(C)N)cc(N4CCC(C)(C)CC4)n3)[C@@]2(C)C1 (single isomer, unassigned; enantiomer 2) [Example 46B]	> 100
Cn1nc(-c2cscn2)cc1C(=O)N1C[C@@H]2[C@H](C1)[C@H]2Oc1cc(C2(C)CCN2)cc(-c2ccc(F)cc2)n1 (single isomer, unassigned; enantiomer 2) [Example 55B]	> 100
Cn1nc(-c2cscn2)cc1C(=O)N1C[C@@H]2[C@H](C1)[C@H]2Oc1cc(C2(C)CCCN2)cc(-c2ccc(F)cc2)n1 (single isomer, unassigned; enantiomer 2) [Example 56B]	> 100
CC(N)c1cc(O[C@H]2[C@@H]3CN(C(=O)c4cc(-c5cscn5)nn4C)C[C@@H]32)nc(-c2ccc(F)cc2)c1 (single isomer, unassigned; enantiomer 2) [Example 61B]	> 100
CC(N)c1cc(O[C@H]2[C@@H]3CN(C(=O)c4cc(-c5ccon5)nn4C)C[C@@H]32)nc(-c2ccc(F)cc2)c1 (single isomer, unassigned; enantiomer 2) [Example 62B]	> 100
Cn1nc(-c2cscn2)cc1C(=O)N1C[C@@H]2[C@H](C1)[C@H]2Oc1cc(C(C)(C)N)cc(C2CCC(C)(C)CC2O)n1 (single isomer, unassigned; enantiomer 2) [Example 66B]	> 100
Cn1nc(-c2cscn2)cc1C(=O)N1C[C@@H]2[C@H](C1)[C@H]2Oc1cc(C(C)(C)N)cc(C2CCC(C)(C)CC2O)n1 (single isomer, unassigned; enantiomer 3) [Example 66C]	> 100
Cn1nc(-c2cscn2)cc1C(=O)N1C[C@@H]2[C@H](C1)[C@H]2Oc1cc(C(C)(C)N)cc(C2CCC(C)(C)CC2O)n1 (single isomer, unassigned; enantiomer 4) [Example 66D]	> 100
Cn1nc(-c2cscn2)cc1C(=O)N1C[C@@H]2[C@H](C1)[C@H]2Oc1cc(C(C)(N)C(N)=O)cc(-c2ccc(F)cc2)n1 (single isomer, unassigned; ent-2) [Example 49B]	> 100
